In paper PMC8479757 (Chemosphere, 2020):

What was measured:
[1] = estimated; cited from earlier work
[2] = biological target: bovine serum albumin (BSA) (Bos taurus, UniProt P02769); assay type: binding; conditions: 310 K; for critical [PFAS]:[BSA] ratio denoting the shift from binding site to surface adsorption: Δδ begins to plateau
[3] = United States population, 2015–2016; cited from earlier work
HSA = conditions: 310 K; cited from earlier work

Chain of bovine serum albumin (BSA) (P02769 25-607): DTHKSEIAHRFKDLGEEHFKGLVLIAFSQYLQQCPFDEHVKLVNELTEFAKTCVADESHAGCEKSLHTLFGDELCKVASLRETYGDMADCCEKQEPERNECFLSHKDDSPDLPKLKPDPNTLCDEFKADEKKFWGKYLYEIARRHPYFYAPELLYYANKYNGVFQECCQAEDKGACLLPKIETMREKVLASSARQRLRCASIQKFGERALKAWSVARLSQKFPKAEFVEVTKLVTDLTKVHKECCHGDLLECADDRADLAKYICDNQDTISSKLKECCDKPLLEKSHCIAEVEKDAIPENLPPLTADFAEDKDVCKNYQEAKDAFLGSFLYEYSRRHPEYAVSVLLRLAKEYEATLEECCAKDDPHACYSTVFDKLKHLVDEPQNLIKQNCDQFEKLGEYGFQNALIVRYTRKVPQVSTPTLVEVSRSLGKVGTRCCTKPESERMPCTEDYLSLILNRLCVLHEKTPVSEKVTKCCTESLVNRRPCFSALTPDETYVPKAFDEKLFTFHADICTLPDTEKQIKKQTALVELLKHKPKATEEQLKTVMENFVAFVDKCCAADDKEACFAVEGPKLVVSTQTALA

Row | Structure (SMILES) | average serum concentration [3] | critical [PFAS]:[BSA] ratio denoting the shift from binding site to surface adsorption [2] | Ka for binding to HSA (HSA) | further results
1 | O=S(=O)(O)C(F)(F)C(F)(F)C(F)(F)C(F)(F)C(F)(F)C(F)(F)C(F)(F)C(F)(F)F [PFOS, perfluorooctanesulfonic acid] | 4.72 µg/L | – | – | half-life in humans [1]: 5.4 years; Ka (ω, terminal −CF3 position) ([2]; BSA, pH 7.4 PBS, Ka=Kd^−1): 357 mM⁻¹
2 | O=S(=O)(O)C(F)(F)C(F)(F)C(F)(F)C(F)(F)C(F)(F)C(F)(F)F [PFHxS, perfluorohexanesulfonic acid] | 0.577 µg/L | 12–14 | – | –
3 | O=C(O)C(F)(F)C(F)(F)C(F)(F)C(F)(F)C(F)(F)C(F)(F)C(F)(F)F [PFOA, perfluorooctanoic acid] | 1.56 µg/L | 12–14 | – | Kd ([2]; Ka (ω, terminal −CF3 position), BSA, pH 7.4 PBS, Ka=Kd^−1): 6.45 µM
4 | CCCCCCCC(=O)O [octanoic acid] | – | – | 34 mM⁻¹ | –
5 | CCCCCCCCCC(=O)O [decanoic acid] | – | – | 100 mM⁻¹ | –
6 | CCCCCC(=O)O [hexanoic acid] | – | – | 15 mM⁻¹ | –
7 | O=C(O)C(F)(F)C(F)(F)C(F)(F)C(F)(F)C(F)(F)C(F)(F)C(F)(F)C(F)(F)F [PFNA, perfluorononanoic acid] | 1.18 µg/L | 12–14 | – | half-life in humans [1]: 2.5 years
